The results in this text go back to patent publication US20260325538A1, “THERAPY” (priority 2023, published 2026).

The assay relates to Klebsiella pneumoniae Kpn St147 (NDM-1 and KPC-2). In words: MIC determination of cefepime with zinc chelator and avibactam (checkerboard, broth microdilution). It counts as cell-based. Here is the method: Antimicrobial susceptibility testing (AST) by broth microdilution was performed according to The European Committee on Antimicrobial Susceptibility Testing. Reading guide for broth microdilution. Version 4.0, 2022 (see: http://www.eucast.org).
Checkerboard 96-well plates (Corning 3788) were made by conducting serial two-fold dilutions of cefepime in cation-adjusted Mueller Hinton II broth (caMHB; Thermo Scientific, T3462), in columns across the microtiter plate (64-0.03 μg/ml). Additionally, avibactam was added to rows 3 to 8 in concentrations of 64, 16, 8, 4, 1 and 0.25 μg/ml, respectively. The zinc chelator was added to the wells of the plate, where applicable. Three plates were made per experiment, one without the zinc chelator (plate 1), one with 16 μg/ml of the zinc chelator (plate 2) and one with 32 μg/ml of the zinc chelator (plate 3). The first row in all plates was used as a positive control for cefepime only, and the second row included the zinc chelator in addition to cefepime (no avibactam added to rows 1 or 2). The zinc chelator was added at the indicated concentration, to rows 3-8 of plates 2 and 3.
The effect of the combination of zinc chelator/FEP/avibactam was tested on a clinically isolated Klebsiella pneumoniae Kpn St147 actively constitutionally expressing the two resistance mechanisms NDM-1 and KPC-2 simultaneously. As a negative control, bacteria+FEP was tested alone. As a positive control, bacteria+FEP+zinc chelator was used. In Tables 1 and 2, concentrations (μg/ml) of FEP are given in the top row left to right and avibactam concentrations (μg/ml) are given top to bottom in column 1.
The fractional inhibitory concentration (FIC) is defined as the concentration that kills when used in combination with another agent divided by the concentration that has the same effect when used alone. The FIC index (FICI) for the combination of two agents is the sum of their individual FIC values. […] The European Committee for Antimicrobial Susceptibility Testing (EUCAST) of the European Society of Clinical Microbiology and Infectious Diseases (ESCMID) 2000 adopts the following definitions to determine the susceptibility of bacteria to an antimicrobial agent (see EUCAST Definitive Document E. Def 1.2: Terminology relating to methods for the determination of susceptibility of bacteria to antimicrobial agents. Clin. Microbiol. Infect. 2000; 6(9): 503-508): • FICI value≤0.5; synergy • 0.5<FICI value≤1; additive effect • 1<FICI value≤2; indifferent effect • FICI≥2; antagonistic effect
To test for synergy, all data were subjected to the following formula in which A=zinc chelator; B=cefepime; and C=avibactam:
ΣFICI=MICA(combination)/MICA (alone)+MICB(combination)/MICB (alone)+MICC(combination)/MICC (alone)

Take `CN(C[C@H](O)[C@@H](O)[C@H](O)[C@H](O)CO)C(=O)c1ccc(CN(Cc2ccccn2)Cc2ccccn2)nc1` [zinc chelator]: the “FICI Zinc Chelator” value (zinc chelator 8 μg/mL, with FEP and avibactam) was determined as 0.004. Moreover, the “amplification of the inhibitory effect” value (zinc chelator at 16 μg/ml, with cefepime and avibactam) is “about 16 fold”.
